Tests used:
Format in all cases: biochemical
[1] = ABTS radical cation scavenging (decolorization) test; conditions: 734 nm, 30 min
Method: (§1) The in vitro antioxidant ability of the compounds synthesized in this work was evaluated using three different assays, including (i) the ABTS radical cation reduction-decolorization test, which uses the technique of Khan et al. consisting of the reduction of the cation radical by an antioxidant through the discoloration measured by absorption at the wavelength of 734 nm; (ii) interaction with the stable free radical DPPH, based on Bassene’s method, in which the scavenging of DPPH radicals is carried out by a colorimetric method consisting of the reduction of the DPPH radical, determined by its absorption at a wavelength of 517 nm; and (iii) the FRAP test according to the protocol of Path Canada, based on the ability of a substance to reduce Fe^3+ ions to Fe^2+ ions, which, in the presence of 1,10-phenanthroline, form a red-orange complex whose optical density can be measured at 505 nm.
The modified technique by Khan et al. was used to scavenge ABTS^+• cation radicals through a discoloration test. In this test, potassium permanganate (KMnO4) or potassium persulphate (K2S2O8) reacts with ABTS to generate a blue-green ABTS^+• radical. Antioxidants reduce this radical, leading to a measurable colour change at 734 nm, proportional to the antioxidant concentration. The antioxidant capacity is assessed by comparing the intensity reduction of ABTS colour with that of a reference antioxidant, gallic acid. Stock and dilute solutions of synthetic compounds were prepared as detailed in §3.2.5.1. Diluted concentrations were (50, 25, 12.5, 6.25, 3.125, 1.5625 and 0.78125)/Mi in mM. The ABTS solution was obtained by mixing ABTS with K2S2O8, producing an intense blue colour. The ABTS^+• radical was generated by combining equal volumes of a 4.9 mM K2S2O8 solution and a 7 mM ABTS stock solution, stored in the dark at room temperature for 15 h before use. The 7 mM ABTS stock was then diluted 20 times with distilled water. A total of 25 µl of each dilution was added to wells along with 75 µl of 0.175 mM ABTS+ solution. After 30 min of incubation in the dark at room temperature, optical densities were measured at 734 nm. Negative controls contained the ABTS reagent without synthesized compounds, while positive controls used gallic acid at the same final concentrations as the compounds. Compounds were also tested alone to assess fluorescence. The reduction of ABTS results in a blue discoloration, with lower absorbance indicating higher antioxidant activity.
(§2) The percentages of scavenging or 50% reduction were calculated using gallic acid as a standard for 100% reduction. The concentration of radical scavengers needed to neutralize 50% of free radicals, referred to as SC50, was determined using GraphPad Prism 8.0.1 software (244).

[2] = DPPH radical scavenging test; conditions: 517 nm, 30 min
Method: as §1
The DPPH radical trapping protocol is based on Bassene’s method, modified for colorimetric analysis. DPPH is a stable purple organic nitrogen radical that absorbs light at 517 nm. When an anti-free radical agent is present, DPPH is reduced to a stable yellow compound, indicated by a loss of colour between 470 and 517 nm. A 0.02% DPPH solution was made with ethanol and stored in a sealed jar in the dark. Stock solutions of the synthesized compounds were prepared by dissolving 100 mg of each in 1 ml of DMSO, and the final concentration of DMSO concentration in the first well was 0.5%. These stocks were then diluted to achieve concentrations (500, 250, 125, 62.5, 31.25, 15.625 and 7.8125)/Mi in mM (Mi: molecular weight of each synthetic compound). Each dilution (25 µl) was put to the wells and 75 µl of the DPPH solution (0.02%) were added. Optical densities were measured at 517 nm after 30 min of incubation in the dark. The negative control used DPPH alone, while the positive control used gallic acid treated with solutions of the synthesized compounds at final concentrations (50, 25, 12.5, 6.25, 3.125, 1.5625 and 0.78125)/Mi in mM. Synthesized compounds were also tested alone to assess fluorescence.
Assays were performed in duplicate, and results were averaged. Percentage inhibition (PI), reflecting the antioxidant activity related to the DPPH˙ radical scavenging effect, was calculated using the following formula:
(PI)=Acontrol−Atest/Acontrol×100,
where Acontrol = absorbance of the control sample and Atest = absorbance of the tested sample.
as §2

[3] = Ferric reducing antioxidant power (FRAP) test; conditions: 505 nm
Method: as §1
The Fe^3+ reduction test followed Path Canada’s protocol with some modifications, assessing the reduction of Fe^3+ ions to Fe^2+ ions, which form a red-orange complex with 1,10-phenanthroline, measurable at 505 nm. The colour intensity correlates with the amount of Fe^3+ reduced. Four solutions were prepared: 1.2 mg ml^−1 of Fe^3+ solution (1.2 mg FeCl3 in 1 ml distilled H2O), 0.2% ortho-phenanthroline solution (200 mg powder in 100 ml ethanol), 2 mg ml^−1 of gallic acid solution (2 mg gallic acid in 1 ml distilled H2O) as a positive control, stock and dilute solutions of the synthesized compounds (see §3.2.5.1). In a 96-well microplate, 180 µl distilled H2O was added to the first column and 100 µl to others for dilution. Each compound solution (20 µl at 10 mg ml^−1) was mixed with 25 µl Fe^3+ solution and incubated for 15 min in the dark at room temperature. Afterwards, 50 µl ortho-phenanthroline solution was added, followed by another 15 min incubation. Optical density was measured at 505 nm using a TECAN M200 plate reader. The positive control was treated similarly to the DPPH and ABTS assays.
as §2

[4] = first replicate, read-out: ABTS SC50(1)
[5] = second replicate, read-out: ABTS SC50(2)
[6] = first replicate, read-out: DPPH SC50(1)
[7] = mean of duplicate, read-out: DPPH mean SC50
[8] = second replicate, read-out: DPPH SC50(2)
[9] = first replicate, read-out: FRAP SC50(1)
[10] = mean of duplicate, read-out: FRAP mean SC50
[11] = second replicate, read-out: FRAP SC50(2)

Compound `O=C(O)c1cc(O)c(O)c(O)c1` [gallic acid, reference compound] has an EC50 [1, 4] of 38 µM, an EC50 [1, 5] of 38 µM and an EC50 [2, 6] of 15 µM. The EC50 [2, 7] was 15 µM, the EC50 [2, 8] was 15 µM and the EC50 [3, 9] was 59 µM. The EC50 [3, 10] was 61 µM and the EC50 [3, 11] was 62 µM.

In the case of `CCCCCCCC/C=C\CCCCCCCC(=O)OCCOC(=O)C(C)c1ccc(CC(C)C)cc1` (centres unmarked) [Compound 5b, 2-((2-(4-isobutylphenyl)propanoyl)oxy)ethyl oleate], the EC50 [1, 4] is reported as 2150 µM, the EC50 ([1]; mean of duplicate, read-out: ABTS mean SC50) is reported as 2130 µM and the EC50 [1, 5] is reported as 2110 µM. The EC50 [2, 6] was 6440 µM, the EC50 [2, 7] was 6480 µM and the EC50 [2, 8] was 6520 µM. The EC50 [3, 9] was 6160 µM, the EC50 [3, 10] was 6180 µM and the EC50 [3, 11] was 6200 µM.

From article PMC12074795, “Synthesis and biological evaluation of esterified anti-inflammatory drugs with ethylene glycol linkers: cytotoxicity, anti-inflammatory and antioxidant properties” (Royal Society Open Science, 2025)
